US20200239530A1, “COMPOUNDS AND METHODS OF MODULATING PROTEIN DEGRADATION” (Vividion Therapeutics, Inc., priority 2017, published 2020)
Like-named read-outs stand apart in the source and are kept apart here. Blank lines part the entries; values can stand above or below the compound they belong to.

Tests used:
Assay in all cases: Cysteine liganding, probe competition
Type in all cases: binding
UniProt Q9UJ41 = target: T1, UniProt Q9UJ41 (Homo sapiens, UniProt Q9UJ41)
T1 construct: 200 μL of lysate containing 5 mg/ml proteome was treated with 2 μL of 100× compound stock; endogenous in cells
Description: (§1) The following 96-well sample prep protocol was used for sample preparation.

UniProt P49792 = target: T2, UniProt P49792 (Homo sapiens, UniProt P49792); details: 500 uM
T2 construct: 200 μL of lysate containing 5 mg/ml proteome was treated with 2 μL of 100× compound stock; endogenous in cells
Description: as §1

UniProt P46934 = target: T3, UniProt P46934 (Homo sapiens, UniProt P46934)
T3 construct: Cells were resuspended in cold PBS on ice and sonicated with a probe sonicator to achieve lysis; endogenous in cells
T3 sequence (P46934 1-1319): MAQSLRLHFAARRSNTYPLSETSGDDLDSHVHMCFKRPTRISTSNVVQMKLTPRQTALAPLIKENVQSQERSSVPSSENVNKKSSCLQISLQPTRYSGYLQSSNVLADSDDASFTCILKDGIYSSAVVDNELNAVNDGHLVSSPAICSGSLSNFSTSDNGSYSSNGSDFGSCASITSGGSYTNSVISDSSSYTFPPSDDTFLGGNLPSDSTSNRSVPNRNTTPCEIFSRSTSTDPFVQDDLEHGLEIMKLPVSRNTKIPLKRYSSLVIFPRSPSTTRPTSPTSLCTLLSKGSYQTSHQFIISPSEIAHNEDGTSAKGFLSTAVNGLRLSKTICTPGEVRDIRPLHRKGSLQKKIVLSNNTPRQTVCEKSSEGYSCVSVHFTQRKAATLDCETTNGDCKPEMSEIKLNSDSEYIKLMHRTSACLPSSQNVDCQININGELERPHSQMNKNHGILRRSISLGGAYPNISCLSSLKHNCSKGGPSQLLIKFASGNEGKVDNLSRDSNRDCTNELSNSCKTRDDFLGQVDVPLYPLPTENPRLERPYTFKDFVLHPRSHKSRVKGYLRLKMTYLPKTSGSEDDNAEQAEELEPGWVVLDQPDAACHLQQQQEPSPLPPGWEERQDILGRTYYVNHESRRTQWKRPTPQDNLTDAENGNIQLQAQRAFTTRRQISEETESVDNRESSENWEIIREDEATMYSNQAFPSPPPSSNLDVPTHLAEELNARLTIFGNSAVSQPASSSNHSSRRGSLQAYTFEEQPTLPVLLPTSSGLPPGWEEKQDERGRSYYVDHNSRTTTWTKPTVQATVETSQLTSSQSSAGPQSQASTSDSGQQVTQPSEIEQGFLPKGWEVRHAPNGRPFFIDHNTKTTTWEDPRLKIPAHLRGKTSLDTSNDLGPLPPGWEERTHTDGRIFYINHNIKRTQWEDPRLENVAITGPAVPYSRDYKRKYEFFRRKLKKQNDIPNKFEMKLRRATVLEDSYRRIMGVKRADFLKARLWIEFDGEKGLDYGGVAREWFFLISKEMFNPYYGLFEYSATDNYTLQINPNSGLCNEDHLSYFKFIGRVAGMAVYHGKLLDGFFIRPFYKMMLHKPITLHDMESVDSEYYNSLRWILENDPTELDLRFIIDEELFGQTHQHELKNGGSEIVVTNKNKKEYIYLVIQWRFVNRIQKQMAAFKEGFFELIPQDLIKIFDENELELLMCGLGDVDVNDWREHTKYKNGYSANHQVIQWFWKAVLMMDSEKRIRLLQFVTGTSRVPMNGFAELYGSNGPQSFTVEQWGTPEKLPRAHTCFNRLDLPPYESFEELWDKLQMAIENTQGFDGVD
Description: as §1

UniProt Q6ZMU5 = target: T4, UniProt Q6ZMU5 (Homo sapiens, UniProt Q6ZMU5)
T4 construct: 200 μL of lysate containing 5 mg/ml proteome was treated with 2 μL of 100× compound stock; endogenous in cells
T4 sequence (Q6ZMU5 1-477): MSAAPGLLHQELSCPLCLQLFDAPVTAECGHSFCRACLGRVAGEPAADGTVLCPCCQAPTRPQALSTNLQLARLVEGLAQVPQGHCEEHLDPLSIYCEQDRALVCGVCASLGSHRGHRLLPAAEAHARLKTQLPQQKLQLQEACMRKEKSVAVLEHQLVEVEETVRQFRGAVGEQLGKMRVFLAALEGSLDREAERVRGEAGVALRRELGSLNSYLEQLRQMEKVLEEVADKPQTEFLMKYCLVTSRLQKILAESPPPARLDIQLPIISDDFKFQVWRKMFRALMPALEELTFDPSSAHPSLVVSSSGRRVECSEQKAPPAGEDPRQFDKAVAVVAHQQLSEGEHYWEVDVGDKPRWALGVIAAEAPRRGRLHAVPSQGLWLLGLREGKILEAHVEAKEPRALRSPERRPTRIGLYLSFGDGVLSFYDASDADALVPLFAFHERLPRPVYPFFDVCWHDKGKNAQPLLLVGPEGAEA
Description: as §1

UniProt Q496Y0 = target: T5, UniProt Q496Y0 (Homo sapiens, UniProt Q496Y0)
T5 construct: 200 μL of lysate containing 5 mg/ml proteome was treated with 2 μL of 100× compound stock; endogenous in cells
Description: as §1

UniProt O43255 = target: T6, UniProt O43255 (Homo sapiens, UniProt O43255)
T6 construct: 200 μL of lysate containing 5 mg/ml proteome was treated with 2 μL of 100× compound stock; endogenous in cells
T6 sequence (O43255 1-324): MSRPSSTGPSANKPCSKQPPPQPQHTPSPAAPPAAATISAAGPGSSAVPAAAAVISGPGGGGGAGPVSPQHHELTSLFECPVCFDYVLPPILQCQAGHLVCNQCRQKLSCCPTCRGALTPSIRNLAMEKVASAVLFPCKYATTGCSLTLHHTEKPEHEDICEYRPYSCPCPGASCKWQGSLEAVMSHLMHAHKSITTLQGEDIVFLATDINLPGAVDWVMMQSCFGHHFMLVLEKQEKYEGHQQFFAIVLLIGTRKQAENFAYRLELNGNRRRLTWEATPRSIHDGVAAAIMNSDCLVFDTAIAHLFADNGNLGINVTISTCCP
Description: as §1

UniProt P78317 = target: T7, UniProt P78317 (Homo sapiens, UniProt P78317)
T7 construct: 200 μL of lysate containing 5 mg/ml proteome was treated with 2 μL of 100× compound stock; endogenous in cells
Description: as §1

UniProt Q12899 = target: T8, UniProt Q12899 (Homo sapiens, UniProt Q12899)
T8 construct: 200 μL of lysate containing 5 mg/ml proteome was treated with 2 μL of 100× compound stock; endogenous in cells
Description: as §1

UniProt Q9H0F6 = target: T9, UniProt Q9H0F6 (Homo sapiens, UniProt Q9H0F6); details: read-out: percent_inhibition
T9 construct: 200 μL of lysate containing 5 mg/ml proteome was treated with 2 μL of 100× compound stock; endogenous in cells
Description: as §1

UniProt Q96DX4 = target: T10, UniProt Q96DX4 (Homo sapiens, UniProt Q96DX4); details: read-out: percent_inhibition
T10 construct: 200 μL of lysate containing 5 mg/ml proteome was treated with 2 μL of 100× compound stock; endogenous in cells
Description: as §1

UniProt O00623 = target: T11, UniProt O00623 (Homo sapiens, UniProt O00623)
T11 construct: 200 μL of lysate containing 5 mg/ml proteome was treated with 2 μL of 100× compound stock; endogenous in cells
Description: as §1

[1] = read-out: KB05_100 uM_percent_inhibition
[2] = 100 uM, read-out: percent inhibition
[3] = 500 uM, read-out: percent inhibition
[4] = 500 uM, read-out: percent_inhibition

T5 sequence (Q496Y0 whole entry, change not shown): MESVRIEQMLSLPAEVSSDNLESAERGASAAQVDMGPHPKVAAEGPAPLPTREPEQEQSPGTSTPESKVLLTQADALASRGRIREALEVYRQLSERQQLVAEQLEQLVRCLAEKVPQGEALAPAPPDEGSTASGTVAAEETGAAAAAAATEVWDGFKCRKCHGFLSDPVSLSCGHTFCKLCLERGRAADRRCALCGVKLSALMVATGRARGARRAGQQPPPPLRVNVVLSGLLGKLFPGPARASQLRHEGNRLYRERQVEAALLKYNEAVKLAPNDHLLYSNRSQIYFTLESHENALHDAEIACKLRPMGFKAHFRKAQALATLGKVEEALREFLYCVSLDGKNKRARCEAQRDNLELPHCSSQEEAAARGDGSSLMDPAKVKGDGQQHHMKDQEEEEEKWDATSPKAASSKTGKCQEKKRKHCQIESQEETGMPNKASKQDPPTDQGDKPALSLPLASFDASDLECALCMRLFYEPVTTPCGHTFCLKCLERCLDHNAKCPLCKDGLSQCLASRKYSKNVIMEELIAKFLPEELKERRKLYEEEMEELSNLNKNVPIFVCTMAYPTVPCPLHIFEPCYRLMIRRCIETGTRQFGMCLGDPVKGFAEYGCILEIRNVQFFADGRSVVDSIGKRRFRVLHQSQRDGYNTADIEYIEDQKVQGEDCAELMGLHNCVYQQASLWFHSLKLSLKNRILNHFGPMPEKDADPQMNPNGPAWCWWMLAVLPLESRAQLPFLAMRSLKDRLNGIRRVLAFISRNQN
T7 sequence (P78317 whole entry, change not shown): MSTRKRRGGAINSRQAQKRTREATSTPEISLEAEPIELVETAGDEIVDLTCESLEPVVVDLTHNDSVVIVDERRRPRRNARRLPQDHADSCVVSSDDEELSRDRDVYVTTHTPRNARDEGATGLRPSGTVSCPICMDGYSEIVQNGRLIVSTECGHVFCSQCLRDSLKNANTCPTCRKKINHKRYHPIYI
T8 sequence (Q12899 whole entry, change not shown): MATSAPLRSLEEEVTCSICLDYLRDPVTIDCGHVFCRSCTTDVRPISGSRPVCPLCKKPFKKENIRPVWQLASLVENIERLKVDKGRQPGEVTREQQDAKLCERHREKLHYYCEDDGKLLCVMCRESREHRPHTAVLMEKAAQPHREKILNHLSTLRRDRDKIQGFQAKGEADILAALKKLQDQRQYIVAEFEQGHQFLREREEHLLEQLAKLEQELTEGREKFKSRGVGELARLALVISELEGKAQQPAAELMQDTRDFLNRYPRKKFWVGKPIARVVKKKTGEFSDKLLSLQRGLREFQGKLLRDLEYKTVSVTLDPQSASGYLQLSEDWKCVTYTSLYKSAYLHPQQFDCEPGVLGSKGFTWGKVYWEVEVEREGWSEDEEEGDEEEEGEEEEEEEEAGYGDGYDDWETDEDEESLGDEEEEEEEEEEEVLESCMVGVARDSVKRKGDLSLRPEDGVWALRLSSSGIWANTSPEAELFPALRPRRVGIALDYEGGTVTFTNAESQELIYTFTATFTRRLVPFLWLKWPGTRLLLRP
T9 sequence (Q9H0F6 whole entry, change not shown): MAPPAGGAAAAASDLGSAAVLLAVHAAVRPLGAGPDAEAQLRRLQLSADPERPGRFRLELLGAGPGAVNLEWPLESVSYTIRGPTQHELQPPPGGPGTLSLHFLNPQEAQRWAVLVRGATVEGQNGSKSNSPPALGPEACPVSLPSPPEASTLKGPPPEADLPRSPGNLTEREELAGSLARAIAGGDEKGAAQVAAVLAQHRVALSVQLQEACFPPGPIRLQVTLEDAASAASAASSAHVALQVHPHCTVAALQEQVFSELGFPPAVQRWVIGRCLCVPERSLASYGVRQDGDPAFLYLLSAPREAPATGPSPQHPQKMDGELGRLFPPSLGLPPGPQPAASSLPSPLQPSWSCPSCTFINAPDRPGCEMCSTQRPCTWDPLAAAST
T11 sequence (O00623 whole entry, change not shown): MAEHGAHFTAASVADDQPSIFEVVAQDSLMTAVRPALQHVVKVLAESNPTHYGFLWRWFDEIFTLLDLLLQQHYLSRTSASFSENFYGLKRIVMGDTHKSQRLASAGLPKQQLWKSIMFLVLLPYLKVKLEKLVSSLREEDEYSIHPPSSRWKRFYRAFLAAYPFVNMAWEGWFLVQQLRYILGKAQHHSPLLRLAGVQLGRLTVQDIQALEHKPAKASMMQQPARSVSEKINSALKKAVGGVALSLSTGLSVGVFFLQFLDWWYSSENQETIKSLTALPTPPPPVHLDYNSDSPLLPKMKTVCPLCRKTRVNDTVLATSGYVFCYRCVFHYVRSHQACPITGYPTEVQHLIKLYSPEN
T10 sequence (Q96DX4 17-576, change not shown): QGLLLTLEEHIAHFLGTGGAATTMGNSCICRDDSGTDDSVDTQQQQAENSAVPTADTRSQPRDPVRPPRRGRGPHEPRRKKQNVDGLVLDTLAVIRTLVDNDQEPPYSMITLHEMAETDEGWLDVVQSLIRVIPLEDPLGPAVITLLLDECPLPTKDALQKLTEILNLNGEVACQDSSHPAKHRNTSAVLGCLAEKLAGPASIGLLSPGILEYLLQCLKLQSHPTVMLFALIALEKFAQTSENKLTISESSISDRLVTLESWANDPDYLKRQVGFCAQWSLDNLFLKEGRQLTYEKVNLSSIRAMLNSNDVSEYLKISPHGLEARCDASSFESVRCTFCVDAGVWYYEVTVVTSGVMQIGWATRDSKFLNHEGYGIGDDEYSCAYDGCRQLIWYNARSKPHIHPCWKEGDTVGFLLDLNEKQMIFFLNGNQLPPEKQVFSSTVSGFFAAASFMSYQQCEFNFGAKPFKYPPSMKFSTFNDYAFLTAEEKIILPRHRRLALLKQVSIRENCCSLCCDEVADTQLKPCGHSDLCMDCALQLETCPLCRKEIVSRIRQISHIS
T1 sequence (Q9UJ41 whole entry, change not shown): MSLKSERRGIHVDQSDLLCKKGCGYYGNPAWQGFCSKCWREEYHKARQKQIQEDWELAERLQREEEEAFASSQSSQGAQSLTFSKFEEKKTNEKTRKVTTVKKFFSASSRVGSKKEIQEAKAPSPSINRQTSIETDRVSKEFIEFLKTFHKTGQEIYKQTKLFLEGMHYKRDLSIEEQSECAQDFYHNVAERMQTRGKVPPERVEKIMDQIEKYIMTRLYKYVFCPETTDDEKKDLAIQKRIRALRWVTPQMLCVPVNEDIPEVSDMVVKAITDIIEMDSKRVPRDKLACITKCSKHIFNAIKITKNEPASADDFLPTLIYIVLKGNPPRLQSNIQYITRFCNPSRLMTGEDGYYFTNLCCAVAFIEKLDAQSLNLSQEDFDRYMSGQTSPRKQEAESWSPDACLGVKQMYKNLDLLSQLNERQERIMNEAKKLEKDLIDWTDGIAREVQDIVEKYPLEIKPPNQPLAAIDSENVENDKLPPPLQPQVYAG

inhibition at 100 µM (UniProt Q9UJ41; [1]): 33% | KB05_500 uM_percent_inhibition (UniProt P49792): 75% | inhibition at 100 µM (UniProt P46934; [2]): 52% | inhibition at 500 µM (UniProt P46934; [3]): 53% | KB05_100 uM_percent_inhibition (UniProt Q6ZMU5; 100 uM): 8% | inhibition at 100 µM (UniProt Q6ZMU5; [1]): 6% | inhibition at 100 µM (UniProt Q496Y0; [2]): 26% | percent inhibition (UniProt Q496Y0; 500 uM): 52% | inhibition at 500 µM (UniProt Q496Y0; [3]): 47% | inhibition at 500 µM (UniProt O43255; [4]): 28% | inhibition at 500 µM (UniProt P78317; [4]): 24% | inhibition at 100 µM (UniProt Q12899; [1]): 28% | inhibition at 100 µM (UniProt Q9H0F6): 25% | inhibition at 500 µM (UniProt Q96DX4): 24%
SMILES: C=CC(=O)N(c1ccccc1)c1ccc(Br)cc1 [KB05]

SMILES: COc1ccc2c(c1)CCCN2C(=O)CCl [KB02]
inhibition at 100 µM (UniProt Q6ZMU5; read-out: KB02_100 uM_percent_inhibition): 36% | inhibition at 500 µM (UniProt O00623; read-out: KB02_500 uM_percent_inhibition): 61% | percent_inhibition (UniProt O43255; 100 uM): 20% | inhibition at 100 µM (UniProt O43255; 100 uM, read-out: percent_inhibition): 31% | inhibition at 100 µM (UniProt Q9H0F6): 3% | inhibition at 500 µM (UniProt Q96DX4): 17%

SMILES: O=C(CCl)Nc1cc(C(F)(F)F)cc(C(F)(F)F)c1 [KBO3]
KB03_100 uM_percent_inhibition (UniProt Q9UJ41; 100 uM): 20% | KB03_500 uM_percent_inhibition (UniProt P49792): 79% | percent inhibition (UniProt P46934; 100 uM): 71% | percent inhibition (UniProt P46934; 500 uM): 76% | KB03_500 uM_percent_inhibition (UniProt O00623; 500 uM): 51% | percent inhibition (UniProt Q496Y0; 500 uM): 26% | percent_inhibition (UniProt P78317; 100 uM): 16% | KB03_100 uM_percent_inhibition (UniProt Q12899; 100 uM): 56%
